System: ATF4 luciferase reporter in HEK293T cells
Experiment: ATF4-Luc assay (ATF4 luciferase reporter, tunicamycin-treated HEK293T cells)
Format: cell-based, human
Conditions: Homo sapiens, HEK-293T; HEK293T cells carrying the ATF4 luciferase reporter, 1 μg/mL tunicamycin, 7 hours

First: CN(CCCOc1ccc(Cl)cc1)C12CCC(NC(=O)COc3ccc(Cl)c(F)c3)(CC1)[C@@H](O)C2 [Compound 696, 2-(4-chloro-3-fluorophenoxy)-N-[(2S)-4-{[3-(4-chlorophenoxy)propyl](methyl)amino}-2-hydroxybicyclo[2.2.2]octan-1-yl]acetamide]
Second: CCCS(=O)(=O)c1ccc(OCC(=O)NC23CCC(NC(=O)COc4ccc(Cl)c(F)c4)(CC2)C[C@@H]3O)cc1 [Compound 522, 2-(4-chloro-3-fluorophenoxy)-N-[(3S)-3-hydroxy-4-{2-[4-(propane-1-sulfonyl)phenoxy]acetamido}bicyclo[2.2.2]octan-1-yl]acetamide]
The EC50 of the first is lower: 10 to 50 nM for the first, > 2000 nM for the second. The first is the more potent here.

First: O=C(CO)Nc1cc(Cl)ccc1OCC(=O)NC12CC(NC(=O)COc3ccc(Cl)c(F)c3)(C1)C2 [Compound 789, 2-(4-chloro-3-fluorophenoxy)-N-(3-{2-[4-chloro-2-(2-hydroxyacetamido)phenoxy]acetamido}bicyclo[1.1.1]pentan-1-yl)acetamide]
Second: O=C(COc1ccc(F)c(F)c1)NC12CC(NC(=O)COc3ccc(F)c(Cl)c3)(C1)C2 [Compound 590, 2-(3-chloro-4-fluorophenoxy)-N-{3-[2-(3,4-difluorophenoxy)acetamido]bicyclo[1.1.1]pentan-1-yl}acetamide]
The EC50 of the first is higher: 50 to 250 nM for the first, < 10 nM for the second. The second is the more potent here.

`O=C(COc1ccc2c(c1)OC(F)(F)O2)NC12CCC(NC(=O)COc3ccc(Cl)c(F)c3)(CC1)[C@@H](O)C2` [Compound 726, 2-(4-chloro-3-fluorophenoxy)-N-[(2S)-4-{2-[(2,2-difluoro-2H-1,3-benzodioxol-5-yl)oxy]acetamido}-2-hydroxybicyclo[2.2.2]octan-1-yl]acetamide] and `O=C(COc1ccc(OC(F)F)c(F)c1)NC12CCC(NC(=O)COc3ccc(Cl)c(F)c3)(CC1)[C@@H](O)C2` [Compound 801, 2-(4-chloro-3-fluorophenoxy)-N-[(2S)-4-{2-[4-(difluoromethoxy)-3-fluorophenoxy]acetamido}-2-hydroxybicyclo[2.2.2]octan-1-yl]acetamide] cannot be ordered by EC50: < 10 nM for the first, < 10 nM for the second.

First: N#CC1CC2(NC(=O)COc3ccc(Cl)c(F)c3)CCC1(NC(=O)COc1ccc(Cl)c(F)c1)CC2 (stereo not shown) [Compound 387, N,N′-(2-cyanobicyclo[2.2.2]octane-1,4-diyl)bis[2-(4-chloro-3-fluorophenoxy)acetamide]]
Second: O=C(COc1ccc(Cl)c(F)c1)N[C@]12CC[C@](NC(=O)COc3ccc(Cl)c(F)c3)(C1)[C@H](O)C2 (racemic) [Compound 579, rac-N,N′-[(1S,2R,4R)-2-hydroxybicyclo[2.2.1]heptane-1,4-diyl]bis[2-(4-chloro-3-fluorophenoxy)acetamide]]
The EC50 of the first is lower: < 10 nM for the first, 10 to 50 nM for the second. The first is the more potent here.

Compared with `O=C(COc1ccc(Cl)c(F)c1)NC12CC(NCC(=O)c3ccc(Cl)c(F)c3)(C1)C2` [Compound 291, 2-(4-chloro-3-fluorophenoxy)-N-(3-{[2-(4-chloro-3-fluorophenyl)-2-oxoethyl]amino}bicyclo[1.1.1]pentan-1-yl)acetamide], `O=C(COCCc1ccc(F)cc1)NC12CC(NC(=O)COc3ccc(Cl)c(F)c3)(C1)C2` [Compound 134, 2-(4-chloro-3-fluorophenoxy)-N-(3-{2-[2-(4-fluorophenyl)ethoxy]acetamido}-bicyclo[1.1.1]pentan-1-yl)acetamide] is lower in EC50: 250 to 500 nM for the first, 50 to 250 nM for the second.

First: CN(C(=O)COc1ccc(Cl)c(F)c1)C12CCC(NC(=O)COc3ccc(Cl)c(F)c3)(CC1)C[C@@H]2O [Compound 375, 2-(4-chloro-3-fluorophenoxy)-N-{(2S)-4-[2-(4-chloro-3-fluorophenoxy)acetamido]-2-hydroxybicyclo[2.2.2]octan-1-yl}-N-methylacetamide]
Second: CS(=O)(=O)c1ccc(OCC(=O)NC23CCC(NC(=O)COc4ccc(Cl)c(F)c4)(CC2)[C@@H](O)C3)cc1F [Compound 769, 2-(4-chloro-3-fluorophenoxy)-N-[(2S)-4-{2-[3-fluoro-4-(methanesulfonyl)phenoxy]acetamido}-2-hydroxybicyclo[2.2.2]octan-1-yl]acetamide]
The EC50 of the first is higher: 50 to 250 nM for the first, 10 to 50 nM for the second. The second is the more potent here.

Compared with `Cc1noc(C)c1-c1cc(OCC(=O)NC23CC(NC(=O)COc4ccc(Cl)c(F)c4)(C2)C3)ccc1Cl` [Compound 261, 2-[4-chloro-3-(3,5-dimethyl-1,2-oxazol-4-yl)phenoxy]-N-{3-[2-(4-chloro-3-fluorophenoxy)acetamido]bicyclo[1.1.1]pentan-1-yl}acetamide], `Cc1cc(OCC(=O)NC23CC(NC(=O)COc4ccc(Cl)c(F)c4)(C2)C3)cnc1F` [Compound 244, 2-(4-chloro-3-fluorophenoxy)-N-(3-{2-[(6-fluoro-5-methylpyridin-3-yl)oxy]acetamido}bicyclo[1.1.1]pentan-1-yl)acetamide] is lower in EC50: 10 to 50 nM for the first, < 10 nM for the second.

`O=C(COc1ccc(Cl)cc1)NC12CCC(NC(=O)COc3ccc(F)cc3)(CC1)[C@@H](O)C2` [Compound 614, 2-(4-chlorophenoxy)-N-{(3S)-4-[2-(4-fluorophenoxy)acetamido]-3-hydroxybicyclo[2.2.2]octan-1-yl}acetamide] and `O=C(COc1ccc(F)c(C(F)(F)F)c1)NC12CCC(NC(=O)COc3ccc(Cl)cc3)(CC1)[C@@H](O)C2` [Compound 846, 2-(4-chlorophenoxy)-N-[(2S)-4-{2-[4-fluoro-3-(trifluoromethyl)phenoxy]acetamido}-2-hydroxybicyclo[2.2.2]octan-1-yl]acetamide] cannot be ordered by EC50: < 10 nM for the first, < 10 nM for the second.

Compared with `O=C(COc1ccc(C(F)(F)F)nc1)NC12CCC(NC(=O)COc3ccc(Cl)c(F)c3)(C1)C2` [Compound 188, 2-(4-chloro-3-fluorophenoxy)-N-[4-(2-{[6-(trifluoromethyl)pyridin-3-yl]oxy}acetamido)bicyclo[2.1.1]hexan-1-yl]acetamide], `NCc1ccc(OCC(=O)NC23CC(NC(=O)COc4ccc(Cl)c(F)c4)(C2)C3)cn1` [Compound 259, 2-{[6-(aminomethyl)pyridin-3-yl]oxy}-N-{3-[2-(4-chloro-3-fluorophenoxy)acetamido]bicyclo[1.1.1]pentan-1-yl}acetamide] is higher in EC50: 50 to 250 nM for the first, 250 to 500 nM for the second. The first is the more potent here.

Compared with `O=C(COc1ccc(Cl)c(F)c1)N[C@@H]1C[C@H]2CC[C@@H](C1)[C@H]2NC(=O)COc1ccc(Cl)c(F)c1` [Compound 595, N,N′-[(1R,3s,5S,8r)-bicyclo[3.2.1]octane-3,8-diyl]bis[2-(4-chloro-3-fluorophenoxy)acetamide]], `O=C(COc1ccc(Cl)c(F)c1)NC12CCC(NC(=O)COc3cc(F)c(Cl)cc3Br)(CC1)C(Br)C2=O` (stereo not shown) [Compound 570, 2-(2-bromo-4-chloro-5-fluorophenoxy)-N-{2-bromo-4-[2-(4-chloro-3-fluorophenoxy)acetamido]-3-oxobicyclo[2.2.2]octan-1-yl}acetamide] is lower in EC50: > 2000 nM for the first, 50 to 250 nM for the second. The second is the more potent here.

First: O=C(COc1ccc(Cl)c(F)c1)NC12CC(NC(=O)COc3cnc(C(F)F)cn3)(C1)C2 [Compound 384, 2-(4-chloro-3-fluorophenoxy)-N-[3-(2-{[5-(difluoromethyl)pyrazin-2-yl]oxy}acetamido)bicyclo[1.1.1]pentan-1-yl]acetamide]
Second: O=C(COc1ccc(C(F)F)cc1)NC12CC(NC(=O)COc3ccc(Cl)c(F)c3)(C1)C2 [Compound 388, 2-(4-chloro-3-fluorophenoxy)-N-(3-{2-[4-(difluoromethyl)phenoxy]acetamido}bicyclo[1.1.1]pentan-1-yl)acetamide]
The EC50 of the first is higher: > 2000 nM for the first, 10 to 50 nM for the second. The second is the more potent here.

`O=C(COc1ccc(F)cc1)NC12CCC(NC(=O)COc3ccc(C(F)(F)F)c(F)c3)(CC1)[C@@H](O)C2` [Compound 835, 2-(4-fluorophenoxy)-N-[(3S)-4-{2-[3-fluoro-4-(trifluoromethyl)phenoxy]acetamido}-3-hydroxybicyclo[2.2.2]octan-1-yl]acetamide] and `O=C(COc1ccc(C(F)F)cc1)NC12CCC(NC(=O)COc3ccc(Cl)c(F)c3)(CC1)[C@@H](O)C2` [Compound 539, 2-(4-chloro-3-fluorophenoxy)-N-[(2S)-4-{2-[4-(difluoromethyl)phenoxy]acetamido}-2-hydroxybicyclo[2.2.2]octan-1-yl]acetamide] cannot be ordered by EC50: < 10 nM for the first, < 10 nM for the second.

First: CS(=O)(=O)c1ccc(OCC(=O)NC23CCC(NC(=O)COc4ccc(OC(F)(F)F)cc4)(CC2)[C@@H](O)C3)cc1F [Compound 765, 2-[3-fluoro-4-(methanesulfonyl)phenoxy]-N-[(3S)-3-hydroxy-4-{2-[4-(trifluoromethoxy)phenoxy]acetamido}bicyclo[2.2.2]octan-1-yl]acetamide]
Second: O=C(COc1ccc(S(F)(F)(F)(F)F)nc1)NC12CCC(NC(=O)COc3ccc(Cl)c(F)c3)(CC1)[C@@H](O)C2 [Compound 838, 2-(4-chloro-3-fluorophenoxy)-N-[(2S)-2-hydroxy-4-(2-{[6-(pentafluoro-lambda^6-sulfanyl)pyridin-3-yl]oxy}acetamido)bicyclo[2.2.2]octan-1-yl]acetamide]
The EC50 of the first is higher: 250 to 500 nM for the first, < 10 nM for the second. The second is the more potent here.

First: O=C(COc1ccc(Cl)cc1)NC12CC(NC(=O)COc3cccc(Cl)c3)(C1)C2 [Compound 118, 2-(4-chlorophenoxy)-N-{3-[2-(3-chlorophenoxy)acetamido]bicyclo-[1.1.1]pentan-1-yl}acetamide]
Second: Cn1ccc(OCC(=O)NC23CC(NC(=O)COc4ccc(Cl)c(F)c4)(C2)C3)n1 [Compound 381, 2-(4-chloro-3-fluorophenoxy)-N-(3-{2-[(1-methyl-1H-pyrazol-3-yl)oxy]acetamido}bicyclo[1.1.1]pentan-1-yl)acetamide]
The EC50 of the first is lower: 10 to 50 nM for the first, 500 to 2000 nM for the second.

First: O=C(COc1ccc(Cl)c(F)c1)NC12CCC(OCc3ccccc3)(CC1)CC2O (stereo not shown) [Compound 567, N-[4-(benzyloxy)-2-hydroxybicyclo[2.2.2]octan-1-yl]-2-(4-chloro-3-fluorophenoxy)acetamide]
Second: Cc1cc(OC(C)(C)C(=O)NC23CCC(NC(=O)COc4ccc(Cl)c(F)c4)(CC2)C[C@@H]3O)ccc1Cl [Compound 439, N-{(2S)-4-[2-(4-chloro-3-fluorophenoxy)acetamido]-2-hydroxybicyclo[2.2.2]octan-1-yl}-2-(4-chloro-3-methylphenoxy)-2-methylpropanamide]
The EC50 of the first is higher: 500 to 2000 nM for the first, < 10 nM for the second.

`O=C(COc1ccc2c(c1)OC(F)(F)O2)NC12CCC(NC(=O)COc3ccc4c(c3)OC(F)(F)O4)(C1)C2` [Compound 391, N,N′-(bicyclo[2.1.1]hexane-1,4-diyl)bis{2-[(2,2-difluoro-2H-1,3-benzodioxol-5-yl)oxy]acetamide}] showed an EC50 of 250 to 500 nM.
